The values below come from patent US9120749B2, “Quinoline derivatives and MELK inhibitors containing the same” (ONCOTHERAPY SCIENCE, INC., priority 2010, dated 2015).

Structures can show the parent of a compound that is named as a salt. Where two headings read alike, the source gives them in different places.

For assay [1], the system named is DU4475 cells. The experiment in a line: Cell-based assay: anti-proliferative activity, Cell Counting Kit-8, 72 hours (DU4475).
Assay [2] concerns T47D cells. The assay can be described thus: Cell-based assay: anti-proliferative activity, Cell Counting Kit-8, 72 hours (T47D). An outline of the steps: (§1)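 Target-specific cytotoxicity: seeded cells treated with MELK inhibitor candidates for 72 h, proliferation quantified via CCK-8, IC50 fitted.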
For orientation: Tetrazolium dyes change colour on reduction, which living cells bring about.

For assay [3], the system named is A549 cells. The experiment in a line: Cell-based assay: anti-proliferative activity, Cell Counting Kit-8, 72 hours (A549). Conditions: 72 hours. The method, boiled down:
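Cell Counting Kit-8 read-out of A549 growth after 72 hours of inhibitor exposure, cells plated in 96-well format. Values reported as IC50.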

Assay [4] deals with MELK (Homo sapiens, UniProt Q14680). The experiment in a line: Kinase assay: MELK activity, phosphorylation of FITC-labeled histone H3 peptide measured by IMAP fluorescence polarization. In kind it is biochemical. As to conditions: read-out: IC50 (μM) (kinase assay). The method, boiled down:
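Polarization of fluorescence served as the signal for MELK turnover of FITC-conjugated histone H3 peptide. Binding solution quenched each reaction, and plates stood 0.5 hour at room temperature before reading.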

Assay [5] deals with HT-1197 cells. The experiment in a line: Cell-based assay: anti-proliferative activity, Cell Counting Kit-8, 72 hours (HT-1197, negative control without MELK expression). As to conditions: Homo sapiens, HT1197, 72 h, HT1197 cells (negative control, no MELK expression), 72 hours. An outline of the steps:
as §1

The test system of assay [6] is 22Rv1 cells. The experiment in a line: Cell-based assay: anti-proliferative activity, Cell Counting Kit-8, 72 hours (22Rv1).

Sequence of MELK (Q14680 whole entry, looked up): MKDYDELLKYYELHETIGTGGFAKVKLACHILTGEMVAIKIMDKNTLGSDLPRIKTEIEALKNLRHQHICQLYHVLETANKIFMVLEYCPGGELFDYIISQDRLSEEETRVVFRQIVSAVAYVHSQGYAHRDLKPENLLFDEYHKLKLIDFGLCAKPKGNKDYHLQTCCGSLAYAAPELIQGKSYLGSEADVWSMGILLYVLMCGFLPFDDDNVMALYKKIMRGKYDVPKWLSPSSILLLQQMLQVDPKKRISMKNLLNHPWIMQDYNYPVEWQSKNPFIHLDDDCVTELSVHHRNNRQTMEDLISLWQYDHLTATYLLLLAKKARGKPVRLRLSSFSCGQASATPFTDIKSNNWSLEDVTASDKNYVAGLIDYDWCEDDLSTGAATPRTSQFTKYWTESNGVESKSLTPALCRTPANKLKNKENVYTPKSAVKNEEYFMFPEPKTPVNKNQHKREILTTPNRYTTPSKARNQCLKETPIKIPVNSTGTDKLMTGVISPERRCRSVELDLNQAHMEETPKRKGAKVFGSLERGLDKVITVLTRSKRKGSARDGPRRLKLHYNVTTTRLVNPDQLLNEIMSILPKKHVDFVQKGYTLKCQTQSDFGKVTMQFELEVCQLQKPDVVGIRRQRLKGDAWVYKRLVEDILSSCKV

Take `CC(=O)c1cnc2ccc(-c3cc(Cl)c(O)c(Cl)c3)cc2c1N[C@@H]1CCC[C@@H](CN(C)C)C1` [Example 750, 1-(6-(3,5-dichloro-4-hydroxyphenyl)-4-((1R,3R)-3-((dimethylamino)methyl)cyclohexylamino)quinolin-3-yl)ethanone]: the IC50 (usually the concentration at which inhibition is half-maximal) in assay [1] (Homo sapiens, DU-4475, 72 h) came out at 0.19 µM; in assay [2] (Homo sapiens, T47D, 72 h), 0.2 µM; in assay [3] (Homo sapiens, A549, 72 h), 0.39 µM; in assay [4] it was 0.0023 µM; in assay [5], 1.7 µM.

Take `CC(=O)c1cnc2ccc(-c3cc(F)c(O)c(Cl)c3)cc2c1N[C@@H]1CCC[C@@H](CN(C)C)C1` [Example 751, 1-(6-(3-chloro-5-fluoro-4-hydroxyphenyl)-4-((1R,3R)-3-((dimethylamino)methyl)cyclohexylamino)quinolin-3-yl)ethanone]: the IC50 in assay [1] (Homo sapiens, DU-4475, 72 h) is 0.29 µM; in assay [2] (Homo sapiens, T47D, 72 h), 0.32 µM; in assay [3] (Homo sapiens, A549, 72 h), 0.58 µM; in assay [4], 0.0067 µM; in assay [5], 1.7 µM.

As for `COc1cc(-c2ccc3ncc(C(C)=O)c(N[C@@H]4CCC[C@@H](CN(C)C)C4)c3c2)cc(Cl)c1O` [Example 752, 1-(6-(3-chloro-4-hydroxy-5-methoxyphenyl)-4-((1R,3R)-3-((dimethylamino)methyl)cyclohexylamino)quinolin-3-yl)ethanone], the IC50 in assay [1] (Homo sapiens, DU-4475, 72 h) was determined as 0.17 µM; in assay [2] (Homo sapiens, T47D, 72 h), 0.18 µM; in assay [3] (Homo sapiens, A549, 72 h), 0.2 µM; in assay [4], 0.001 µM; in assay [5], 3.4 µM.

Consider `CC(=O)c1cnc2ccc(-c3cc(Cl)c(O)c(Cl)c3)cc2c1N[C@H]1CC[C@H](CN2CCC(O)C2)CC1` (stereo partly shown) [Example 753], for which the IC50 in assay [1] (Homo sapiens, DU-4475, 72 h) amounted to 0.057 µM; in assay [2] (Homo sapiens, T47D, 72 h), 0.13 µM; in assay [3] (Homo sapiens, A549, 72 h) it was 0.37 µM; in assay [4], 0.0015 µM; in assay [5] it was 71 µM.

Turning to `CCC(=O)c1cnc2ccc(-c3cc(Cl)c(O)c(Cl)c3)cc2c1N[C@H]1CC[C@H](N(C)C)CC1` [Example 754, 1-(6-(3,5-dichloro-4-hydroxyphenyl)-4-((trans-4-(dimethylamino)cyclohexyl)amino)quinolin-3-yl)propan-1-one], the IC50 in assay [1] (Homo sapiens, DU-4475, 72 h) is 0.072 µM; in assay [2] (Homo sapiens, T47D, 72 h), 0.19 µM; in assay [3] (Homo sapiens, A549, 72 h), 0.22 µM; in assay [4], 0.02 µM; in assay [5] it was 10 µM.

On to `CCC(=O)c1cnc2ccc(-c3cc(Cl)c(O)c(OC)c3)cc2c1N[C@H]1CC[C@H](N(C)C)CC1` [Example 755], for which the IC50 in assay [1] (Homo sapiens, DU-4475, 72 h) came out at 0.21 µM; in assay [2] (Homo sapiens, T47D, 72 h) it was 0.35 µM; in assay [3] (Homo sapiens, A549, 72 h), 0.34 µM; in assay [4] it was 0.0018 µM; in assay [5] it was 3.4 µM.

For the compound `CCC(=O)c1cnc2ccc(-c3cc(F)c(O)c(Cl)c3)cc2c1N[C@H]1CC[C@H](N(C)C)CC1` [Example 757, 1-(6-(3-chloro-5-fluoro-4-hydroxyphenyl)-4-((trans-4-(dimethylamino)cyclohexyl)amino)quinolin-3-yl)propan-1-one], the IC50 in assay [1] (Homo sapiens, DU-4475, 72 h) was found to be 0.069 µM; in assay [2] (Homo sapiens, T47D, 72 h), 0.064 µM; in assay [3] (Homo sapiens, A549, 72 h) it was 0.15 µM; in assay [4] it was 0.0062 µM; in assay [5], 0.76 µM.

With `CC(=O)c1cnc2ccc(-c3cc(Cl)c(O)c(Cl)c3)cc2c1Nc1ccc(NCCN(C)C)nc1` [Example 758, 1-(6-(3,5-dichloro-4-hydroxyphenyl)-4-(6-(2-(dimethylamino)ethylamino)pyridin-3-ylamino)quinolin-3-yl)ethanone], the IC50 in assay [1] (Homo sapiens, DU-4475, 72 h) came out at 0.055 µM; in assay [2] (Homo sapiens, T47D, 72 h), 0.15 µM; in assay [3] (Homo sapiens, A549, 72 h), 0.22 µM; in assay [4] it was 0.0053 µM; in assay [5], 24 µM.

On to `CC(=O)c1cnc2ccc(-c3cc(F)c(O)c(Cl)c3)cc2c1Nc1cccc(CCN(C)C)c1` [Example 759, 1-(6-(3-chloro-5-fluoro-4-hydroxyphenyl)-4-(3-(2-(dimethylamino)ethyl)phenylamino)quinolin-3-yl)ethanone], for which the IC50 in assay [1] (Homo sapiens, DU-4475, 72 h) is 0.2 µM; in assay [2] (Homo sapiens, T47D, 72 h) it was 0.67 µM; in assay [3] (Homo sapiens, A549, 72 h), 0.42 µM; in assay [4], 0.013 µM; in assay [5] it was 10 µM.

As to `CCC(=O)c1cnc2ccc(-c3cc(F)c(O)c(Cl)c3)cc2c1Nc1ccc(N2CCC(N)C2)nc1` (stereo not shown) [Example 760, 1-(4-(6-(3-aminopyrrolidin-1-yl)pyridin-3-ylamino)-6-(3-chloro-5-fluoro-4-hydroxyphenyl)quinolin-3-yl)propan-1-one], the IC50 in assay [1] (Homo sapiens, DU-4475, 72 h) stood at 0.016 µM; in assay [2] (Homo sapiens, T47D, 72 h), 0.0087 µM; in assay [3] (Homo sapiens, A549, 72 h), 0.031 µM; in assay [4], 0.0034 µM; in assay [5], 0.77 µM.

Regarding `CCC(=O)c1cnc2ccc(-c3cc(Cl)c(O)c(Cl)c3)cc2c1Nc1ccc(N2CCC(N)C2)nc1` (stereo not shown) [Example 761, 1-(4-(6-(3-aminopyrrolidin-1-yl)pyridin-3-ylamino)-6-(3,5-dichloro-4-hydroxyphenyl)quinolin-3-yl)propan-1-one], the IC50 in assay [1] (Homo sapiens, DU-4475, 72 h) stood at 0.022 µM; in assay [2] (Homo sapiens, T47D, 72 h), 0.031 µM; in assay [3] (Homo sapiens, A549, 72 h) it was 0.053 µM; in assay [4], 0.0026 µM; in assay [5], 1.5 µM.

With `CC(=O)c1cnc2ccc(-c3cc(F)c(O)c(Cl)c3)cc2c1Nc1ccc(NCCN(C)C)nc1` [Example 762, 1-(6-(3-chloro-5-fluoro-4-hydroxyphenyl)-4-(6-(2-(dimethylamino)ethylamino)pyridin-3-ylamino)quinolin-3-yl)ethanone], the IC50 in assay [1] (Homo sapiens, DU-4475, 72 h) was 0.089 µM; in assay [2] (Homo sapiens, T47D, 72 h), 0.12 µM; in assay [3] (Homo sapiens, A549, 72 h), 0.25 µM; in assay [4] it was 0.014 µM; in assay [5] it was 5.2 µM.

In the case of `CC(=O)c1cnc2ccc(-c3cc(Cl)c(O)c(Cl)c3)cc2c1N[C@H]1CC[C@H](CN2CCC[C@H]2CO)CC1` [Example 792, 1-(6-(3,5-dichloro-4-hydroxyphenyl)-4-((1S,4r)-4-(((S)-2-(hydroxymethyl)pyrrolidin-1-yl)methyl)cyclohexylamino)quinolin-3-yl)ethanone], the IC50 in assay [1] (Homo sapiens, DU-4475, 72 h) came out at 0.073 µM; in assay [2] (Homo sapiens, T47D, 72 h), 0.079 µM; in assay [3] (Homo sapiens, A549, 72 h) it was 0.1 µM; in assay [4] it was 0.0011 µM; in assay [6] (Homo sapiens, 22Rv1, 72 h), 0.12 µM.

Take `O=C(c1cnc2ccc(-c3cc(Cl)c(O)c(Cl)c3)cc2c1Nc1cccc(CCN2CCCC2)c1)C1CC1` [Example 797, Cyclopropyl{6-(3,5-dichloro-4-hydroxyphenyl)-4-[3-(2-(pyrrolidin-1-yl)ethyl)phenylamino]quinolin-3-yl}methanone]: the IC50 amounted to 0.03 µM in assay [1] (Homo sapiens, DU-4475, 72 h); 0.31 µM in assay [2] (Homo sapiens, T47D, 72 h); 0.022 µM in assay [3] (Homo sapiens, A549, 72 h); 0.0056 µM in assay [4]; 0.12 µM in assay [6] (Homo sapiens, 22Rv1, 72 h).

On to `O=C(c1cnc2ccc(-c3cc(Cl)c(O)c(Cl)c3)cc2c1Nc1cccc(CCN2CCCC2)c1)C1CC1` [Example 798, cyclopropyl(6-(3,5-dichloro-4-hydroxyphenyl)-4-(3-(2-(pyrrolidin-1-yl)ethyl)phenylamino)quinolin-3-yl)methanone hydrochloride], for which the IC50 in assay [1] (hydrochloride) is 0.02 µM; in assay [2] (72 hours, hydrochloride) it was 0.16 µM; in assay [3] (hydrochloride), 0.019 µM; in assay [4] (hydrochloride), 0.0029 µM; in assay [6] (hydrochloride), 0.092 µM.

For the compound `O=C(c1cnc2ccc(-c3cc(F)c(O)c(Cl)c3)cc2c1Nc1cccc(CCN2CCCC2)c1)C1CC1` [Example 800, (6-(3-chloro-5-fluoro-4-hydroxyphenyl)-4-(3-(2-(pyrrolidin-1-yl)ethyl)phenylamino)quinolin-3-yl)(cyclopropyl)methanone hydrochloride], the IC50 in assay [1] (hydrochloride) amounted to 0.046 µM; in assay [2] (72 hours, hydrochloride) it was 0.26 µM; in assay [3] (hydrochloride), 0.041 µM; in assay [4] (hydrochloride), 0.012 µM; in assay [6] (hydrochloride), 0.17 µM.

With `CC(=O)c1cnc2ccc(-c3cc(Cl)c(O)c(Cl)c3)cc2c1Nc1cccc(CCN2CCCC2)c1` [Example 801, 1-{6-(3,5-Dichloro-4-hydroxyphenyl)-4-[3-(2-(pyrrolidin-1-yl)ethyl)phenylamino]quinolin-3-yl}ethanone], the IC50 in assay [1] (Homo sapiens, DU-4475, 72 h) was determined as 0.06 µM; in assay [2] (Homo sapiens, T47D, 72 h), 0.37 µM; in assay [3] (Homo sapiens, A549, 72 h) it was 0.081 µM; in assay [4], 0.004 µM; in assay [6] (Homo sapiens, 22Rv1, 72 h), 0.15 µM.

Turning to `CC(=O)c1cnc2ccc(-c3cc(Cl)c(O)c(Cl)c3)cc2c1Nc1cccc(CCN2CCCC2)c1` [Example 802, 1-(6-(3,5-dichloro-4-hydroxyphenyl)-4-(3-(2-(pyrrolidin-1-yl)ethyl)phenylamino)quinolin-3-yl)ethanone hydrochloride], the IC50 came to 0.072 µM in assay [1] (hydrochloride); 0.45 µM in assay [2] (72 hours, hydrochloride); 0.08 µM in assay [3] (hydrochloride); 0.0021 µM in assay [4] (hydrochloride); 0.16 µM in assay [6] (hydrochloride).

For the compound `CC(=O)c1cnc2ccc(-c3cc(F)c(O)c(Cl)c3)cc2c1Nc1cccc(CCN2CCCC2)c1` [Example 803, 1-(6-(3-chloro-5-fluoro-4-hydroxyphenyl)-4-(3-(2-(pyrrolidin-1-yl)ethyl)phenylamino)quinolin-3-yl)ethanone], the IC50 in assay [1] (Homo sapiens, DU-4475, 72 h) is 0.12 µM; in assay [2] (Homo sapiens, T47D, 72 h) it was 0.65 µM; in assay [3] (Homo sapiens, A549, 72 h), 0.17 µM; in assay [4], 0.016 µM; in assay [6] (Homo sapiens, 22Rv1, 72 h), 0.44 µM.

As to `CC(=O)c1cnc2ccc(-c3cc(Cl)c(O)c(Cl)c3)cc2c1N[C@H]1CC[C@H](CN2CCC[C@@H]2CO)CC1` [Example 812], the IC50 turned out to be 0.086 µM in assay [1] (Homo sapiens, DU-4475, 72 h); 0.15 µM in assay [2] (Homo sapiens, T47D, 72 h); 0.18 µM in assay [3] (Homo sapiens, A549, 72 h); 0.0017 µM in assay [4]; 0.2 µM in assay [6] (Homo sapiens, 22Rv1, 72 h).
